Source: patent publication US20120165319A1, “INHIBITORS OF INTERLEUKIN-1 BETA CONVERTING ENZYME” (VERTEX PHARMACEUTICALS INCORPORATED, priority 1995, published 2012)
Like-named read-outs stand apart in the source and are kept apart here.

How the values were obtained:
[1] = test system: IL-1β, human peripheral blood mononuclear cells (PBMC); test: PBMC cell assay: IL-1β assay with human PBMC or enriched adherent mononuclear cells, LPS-stimulated; type: cell-based
Procedure, shortened: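 Buffy-coat human PBMC at 6×10^6 cells/ml, or adherent monocytes enriched by 1 h adherence (2.5−3.0×10^5 cells/well), are given 5–6 compound dilutions bracketing the ICE Ki (final DMSO 0.1%) plus LPS at a final 5 ng/ml. They are incubated 16–18 hr at 37 °C, 5% CO2, and supernatant mature IL-1β is measured by ELISA, with duplicate cultures and duplicate ELISAs.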

IL-1β, human whole blood = test: Whole blood assay for IL-1β production; type: cell-based; settings: read-out: Whole human blood IC50
Procedure, shortened: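 Human whole blood collected on Na2EDTA was treated with serially diluted compound in saline and then stimulated with LPS at 5.0 ng/ml final, for 16-18 h at 30 °C, in duplicate or triplicate. Plasma IL-1β was measured by ELISA at 1:200 dilution.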

[2] = test system: IL-1β production, LPS-challenged mice; test: In vivo acute assay for efficacy as anti-inflammatory agent: LPS-induced IL-1β production in mice; design: species or system mouse; settings: for percent inhibition of IL-1β production / inhibition at 50 mg/kg: LPS challenged mice, compound PO, 50 mg/kg; for inhibition at 50 mg/kg: Mus musculus, po, read-out: percent inhibition of IL-1β production
Procedure: In Vivo Acute Assay for Efficacy as Anti-Inflammatory Agent
LPS-Induced IL-1β Production.
Efficacy of 214e and 217e was evaluated in CD1 mice (n=6 per condition) challenged with LPS (20 mg/kg IP). […] Blood was collected seven hours after LPS challenge. Serum IL-1β levels were measure by ELISA. […] Similar results were obtained in a second experiment. […] However, a clear dose response was not apparent.
Compounds 214e and 217e (50 mg/kg) were also administered by oral gavage to assess absorption.
The efficacy of analogs of 214e were also evaluated in LPS challenged mice after IP administration (FIG. 9) and PO administration (FIG. 10).
[…] The protocol is described in Example 7.

[3] = In vivo rat clearance assay; settings: for clearance: plasma, iv
Procedure: In Vivo Rat Clearance Assay
Cannulations of the jugular and carotid vessels of rats under anesthesia were performed one day prior to the pharmacokinetic study. M. J. Free, R. A. Jaffee; ‘Cannulation techniques for the collection blood and other bodily fluids’; in: Animal Models; p. 480-495; N. J. Alexander, Ed.; Academic Press; (1978). Drug (10 mg/mL) was administered via the jugular vein in a vehicle usually consisting of: propylene glycol/saline, containing 100 mM sodium bicarbonate in a 1:1 ratio. Animals were dosed with 10-20 mg drug/kg and blood samples were drawn at 0, 2, 5, 7, 10, 15, 20, 30, 60, and 90 minutes from an indwelling carotid catheter. The blood was centrifuged to plasma and stored at −20° C. until analysis. Pharmacokinetic analysis of data was performed by non-linear regression using standard software such as RStrip (MicroMath Software, UT) and/or Pcnonlin (SCI Software, NC) to obtain clearance values.
Rat plasma was extracted with an equal volume of acetonitrile (containing 0.1% TFA). Samples were then centrifuged at approximately 1,000×g and the supernatant analyzed by gradient HPLC. A typical assay procedure is described below.
A standard curve was run at 20, 10, 5, 2 and 1 μg/mL concentrations.

ICE = molecular target: T1, ICE (Homo sapiens, UniProt P29466); test: Enzyme assay with UV-visible substrate (visible ICE assay, Succinyl-Tyr-Val-Ala-Asp-pNitroanilide); type: biochemical
T1 sequence (P29466 120-297 limits assumed): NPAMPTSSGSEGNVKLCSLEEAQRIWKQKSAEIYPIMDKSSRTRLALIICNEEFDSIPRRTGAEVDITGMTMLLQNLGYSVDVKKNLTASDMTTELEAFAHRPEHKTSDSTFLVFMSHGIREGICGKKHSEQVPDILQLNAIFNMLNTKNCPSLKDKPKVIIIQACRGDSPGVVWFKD
T1 sequence (P29466 317-404 limits assumed): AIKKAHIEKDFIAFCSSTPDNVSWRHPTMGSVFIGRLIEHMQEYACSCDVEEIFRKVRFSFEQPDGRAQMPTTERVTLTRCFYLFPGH
Procedure, shortened: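 Buffer, ICE and inhibitor in DMSO are combined and held 15 min at room temperature. Succinyl-Tyr-Val-Ala-Asp-pNA is then added and absorbance at 405-603 nm tracked for 20 min at 37° C.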

[4] = Homo sapiens, PBMC, * = values obtained upon reassay
[5] = % inhibition of IL-β production, LPS-challenged mice, 50 mg/kg (Table 3)
[6] = * = values obtained upon reassay
[7] = 0 h, administered 0 h relative to time of LPS challenge
[8] = 1 h, administered +1 h relative to time of LPS challenge
[9] = 2 h, administered −2 h relative to time of LPS challenge

With `CC(=O)Nc1cccc(C(=O)N[C@H]2CCC(=O)N3CCC[C@@H](C(=O)N[C@H]4CC(=O)OC4OCc4ccccc4)N3C2=O)c1` (mixture of isomers) [Compound 213o, [1S,9S(2RS,3S)]9-[(3-Acetamido)benzamido]-N-(2-benzyloxy-5-oxotetrahydrofuran-3-yl)-6,10-dioxo-1,2,3,4,7,8,9,10-octahydro-6H-pyridazino[1,2-a][1,2]diazepine-1-carboxamide] the IC50 ([1]; Table 17) was 5000 nM, the IC50 (IL-1β, human whole blood; Table 17) was 3300 nM and the “percent inhibition of IL-1β production” value ([2]; administered 0 h relative to time of LPS challenge) was 8%. The “percent inhibition of IL-1β production” value ([2]; administered −2 h relative to time of LPS challenge) was 4%.

`COc1cccc2nc(C(=O)[C@H](CC(=O)O)NC(=O)CN3C(=O)[C@@H](NC(=O)CCc4ccccc4)CN(C(=O)CCc4ccccc4)c4ccccc43)oc12` [Compound 108b, 4-(7-Methoxybenzoxazol-2-yl)-4-oxo-3(S)-{2-[2-oxo-5-(3-phenylpropionyl)-3(S)-(3-phenylpropionylamino)-2,3,4,5-tetrahydrobenzo[b][1,4]diazepin-1-yl]-acetylamino}butyric acid] showed a clearance ([3]; 10-20 mg/kg) of over 100 mL/min/kg.

For `COc1cccc(NC(=O)NN2CCC(=O)N3CCC[C@@H](C(=O)N[C@H](C=O)CC(=O)O)N3C2=O)c1` [Compound 265c, [3S(4S)]3-[6,10-Dioxo-7-(3-methoxyphenylureido)-1,2,3,4,7,8,9,10-octahydro-6H-pyridazino[1,2-a][1,2,4]triazepine-4-carboxamido]-4-oxobutanoic acid], the clearance ([3]; Table 17) was 32 mL/min/kg, the IC50 ([1]; Homo sapiens, PBMC, Table 17) was 4500 nM and the Ki (ICE; Table 17) was 1100 nM.

`COc1ccccc1NC(=O)NN1CCC(=O)N2CCC[C@@H](C(=O)N[C@H](C=O)CC(=O)O)N2C1=O` [Compound 265d, [3S(4S)]3-[6,10-Dioxo-7-(2-methoxyphenylureido)-1,2,3,4,7,8,9,10-octahydro-6H-pyridazino[1,2-a][1,2,4]-triazepine-4-carboxamido]-4-oxobutanoic acid] gave a clearance ([3]; Table 17) of 35 mL/min/kg, an IC50 ([1]; Homo sapiens, PBMC, Table 17) of 1500 nM and a Ki (ICE; Table 17) of 500 nM.

With `CS(=O)(=O)N[C@H]1CCC(=O)N2CCC[C@@H](C(=O)N[C@@H](CC(=O)O)C(=O)COc3cccnc3)N2C1=O` [Compound 283b, [3S(1S,9S)]3-(6,10-Dioxo-9-methanesulphonamido-1,2,3,4,7,8,9,10-octahydro-6H-pyridazino[1,2-a][1,2]diazepine-1-carboxamido)-4-oxo-5(3-pyridyloxy)pentanoic acid] the “Clearance Rat, i.v.” value ([3]; Table 17) was 41 mL/min/kg and the IC50 ([1]; Table 17) was 1750 nM.

Molecule `O=C[C@H](CC(=O)O)NC(=O)[C@@H]1CCCN2C(=O)CC[C@H](NS(=O)(=O)c3ccccc3)C(=O)N12` [Compound 427] has a clearance ([3]; 10-20 mg/kg) of 36 mL/min/kg, an IC50 [1, 4] of 4500 nM and a Ki (ICE; Table 5) of 180 nM.

For `O=C[C@H](CC(=O)O)NC(=O)[C@@H]1CCCN2C(=O)CC[C@H](NC(=O)c3ccc4ncccc4c3)C(=O)N12` [Compound 438], the clearance ([3]; 10-20 mg/kg) was 22 mL/min/kg, the IC50 [1, 4] was 1000 nM and the “IP % Inhibition” value [2, 5] was 40%. The “POS Inhibition” value ([2]; % inhibition of IL-β production, LPS-challenged mice, PO, 50 mg/kg (Table 3)) was 13% and the Ki (ICE; Table 5) was 28 nM.

With `COc1ccc(C(=O)N[C@H]2CCC(=O)N3CCC[C@@H](C(=O)N[C@H](C=O)CC(=O)O)N3C2=O)cc1` [Compound 452] the clearance ([3]; 10-20 mg/kg) was 27.3 mL/min/kg, the IC50 [1, 6] was 800 nM and the IC50 [1, 4] was 600 nM. The inhibition at 50 mg/kg [2, 7] was 89%, the inhibition at 50 mg/kg [2, 8] was 70% and the inhibition at 50 mg/kg [2, 9] was 28%. The Ki (ICE; Table 5) was 4.5 nM.

With `Nc1ccc(C(=O)N[C@H]2CCC(=O)N3CCC[C@@H](C(=O)N[C@H](C=O)CC(=O)O)N3C2=O)cc1Cl` [Compound 481] the clearance ([3]; 10-20 mg/kg) was 34 mL/min/kg, the IC50 (IL-1β, human whole blood; [6]) was 500 nM and the IC50 (IL-1β, human whole blood; Homo sapiens, * = values obtained upon reassay) was 600 nM. For the same molecule, the inhibition at 50 mg/kg [2, 7] was 0%, the inhibition at 50 mg/kg [2, 9] was 27% and the Ki (ICE; Table 5) was 1.2 nM.

Work on `CCOC1OC(=O)C[C@@H]1NC(=O)[C@@H]1CCCN2C(=O)CC[C@H](NC(=O)c3cccc(NC(C)=O)c3)C(=O)N12` (stereo partly drawn) [Compound 550n, [1S,9S (2RS,3S)]9-(3-Acetamido) benzoylamino-6,10-dioxo-N-(2-ethoxy-5-oxo-tetrahydrofuran-3-yl)-1,2,3,4,7,8,9,10-octahydro-6H-pyridazino[1,2-a][1,2]diazepine-1-carboxamide] yielded an IC50 (IL-1β, human whole blood; Homo sapiens, Table 17) of under 300 nM, an inhibition at 50 mg/kg [2, 7] of 65% and an inhibition at 50 mg/kg [2, 9] of 19%.

For `CCOC1OC(=O)C[C@@H]1NC(=O)[C@@H]1CCCN2C(=O)CC[C@H](NC(=O)c3ccc(O)cc3)C(=O)N12` (stereo partly drawn) [Compound 550p, [1S,9S(2RS,3S)]6,10-Dioxo-N-(2-ethoxy-5-oxotetrahydrofuran-3-yl)-9-(4-hydroxybenzoyl)amino-1,2,3,4,7,8,9,10-octahydro-6H-pyridazino[1,2-a][1,2]diazepine-1-carboxamide], the IC50 (IL-1β, human whole blood; Homo sapiens, Table 17) was 2900 nM, the inhibition at 50 mg/kg [2, 7] was 60% and the inhibition at 50 mg/kg [2, 9] was 30%.

Work on `O=C[C@H](CC(=O)O)NC(=O)[C@@H]1CCCN2C(=O)CC[C@H](NC(=O)C(=O)c3ccccc3)C(=O)N12` [Compound 2002, [3S(1S,9S)]3-(9-Benzoylformylamino-6,10-dioxo-1,2,3,4,7,8,9,10-octahydro-6H-pyridazino[1,2-a][1,2]-diazepine-1-carboxamido)-4-oxobutanoic acid] yielded a clearance ([3]; 10-20 mg/kg) of 32 mL/min/kg, an IC50 [1, 6] of 860 nM and an IC50 [1, 4] of 810 nM. The “IP % Inhibition” value [2, 5] was 78%, the inhibition at 50 mg/kg [2, 7] was 87% and the inhibition at 50 mg/kg [2, 9] was 5%. It also gave a Ki (ICE; Table 5) of 4 nM.

In the case of `CCOC(=O)CC(=COC(C)=O)NC(=O)[C@@H]1CCCN2C(=O)CC[C@H](NC(=O)c3ccccc3)C(=O)N12` [Compound 2100j, [3S(1S,9S)]3-(9-Benzoylamino-6,10-dioxo-1,2,3,4,7,8,9,10-octahydro-6H-pyridazino[1,2-a][1,2]diazepine-1-carboxamido)-4-acetoxy-3-butenoic acid ethyl ester], the IC50 (IL-1β, human whole blood; Homo sapiens, Table 17) is reported as 12000 nM, the inhibition at 50 mg/kg [2, 7] is reported as 0% and the inhibition at 50 mg/kg [2, 8] is reported as 33%. It also gave an inhibition at 50 mg/kg ([2]; 1 h, administered −1 h relative to time of LPS challenge) of 41%, an inhibition at 50 mg/kg [2, 9] of 48% and a Ki (ICE; Table 17) of 30000 nM.
